Structures are written as SMILES.

Data set [1] has as its system amylase (Fortiva Revo from Novozymes). The data set can be described thus: Turbidity of commercial liquid amylase product after addition of 1,2-hexanediol (nephelometer). The format is physicochemical. The procedure:
(§1) The transparency (turbidity) of two commercial liquid protease (Fermax from Novozymes) and amylase (Fortiva Revo from Novozymes) products were evaluated before and after addition of different amounts of 1,2-hexanediol.

Data set [2] relates to protease (Fermax from Novozymes). Briefly: Turbidity of commercial liquid protease product after addition of 1,2-hexanediol (nephelometer). The format is physicochemical. The procedure: as §1
A further data set has as its system aqueous lipase solution. The data set can be described thus: Physical stability of a lipase solution with 1,2-hexanediol or 1,2-octanediol (visual inspection). The format is physicochemical. As to conditions: lipase 3% w/w, 15% w/w sorbitol, 6% w/w MPG. The method, then:
(§2) Physical stability is the ability to maintain a transparent, preferably clear, composition. This may be evaluated by visual inspection, or by centrifugation. For example, the liquid composition may centrifugated at 1200 G for 10 minutes to determine if a pellet (solid phase) is formed. Alternatively, transparency may be measured as turbidity or haziness, by using a nephelometer to measure NTU to determine light scattering.
An aqueous lipase solution was formulated with 15% w/w sorbitol and 6% w/w MPG to a final enzyme protein concentration of 3% w/w. Two samples were prepared by adding 1% w/w 1,2-hexanediol or 0.3% w/w 1,2-octanediol to the lipase solution.

Data set [3] concerns aqueous protease solution. The data set can be described thus: Physical stability of a protease solution with 1,2-hexanediol or glycerol (visual inspection and NTU). The format is physicochemical. The note with it: additive 10% w/w; protease 6.8% w/w; 4 weeks at 25° C. The procedure:
as §2
(§3) An aqueous protease solution and an aqueous pectate lyase solution were formulated with 10% w/w water, 10% w/w 1,2-hexanediol, or 10% w/w glycerol to a final enzyme protein concentration of 6.8% w/w and 8.1% w/w, respectively. The physical stability was evaluated after storage for 4 weeks at 25° C., by visual inspection and by NTU measurements, as shown in Table 4.

Data set [4] concerns aqueous pectate lyase solution. The data set can be described thus: Physical stability of a pectate lyase solution with 1,2-hexanediol or glycerol (visual inspection and NTU). The format is physicochemical. As to conditions: additive 10% w/w; pectate lyase 8.1% w/w; 4 weeks at 25° C. The method, then:
as §2, §3

The subject of another data set is Mannanase. Briefly: Increase in enzyme solubility (supernatant enzyme activity), mannanase. The format is physicochemical. The note with it: mannanase suspension, 2 hours at room temperature. The procedure: (§4) An aqueous enzyme solution produced via fermentation of microorganism and recovered by removal of cells were concentrated using ultrafiltration to form a supersaturated protein solution. The solution was cooled below 5° C. for more than 24 hours to generate protein precipitate. The protein precipitate was suspended in the cold solution by shaking before use. Water and 1,2-hexanediol or glycerol were added to the protein suspension to obtain a diluted protein suspension with the indicated concentration of 1,2-hexanediol or glycerol while keeping the dilution of the protein suspension constant (70% w/w protein suspension to 30% w/w water/1,2-hexanediol/glycerol). The diluted protein suspensions were mixed for 2 hours at room temperature on a magnetic stirred followed by centrifugation to generate a clear supernatant. The obtained supernatant was analyzed for enzyme activity. The data in Table 5 show how much the enzyme solubility (enzyme activity) has increased compared to the reference sample, which only contains water.

Another data set has as its system Protease. Briefly: Increase in enzyme solubility (supernatant enzyme activity), protease. The format is physicochemical. The note with it: protease suspension, 2 hours at room temperature. The procedure:
as §4

Another data set has as its system Pectate lyase. Briefly: Increase in enzyme solubility (supernatant enzyme activity), pectate lyase. The format is physicochemical. The note with it: pectate lyase suspension, 2 hours at room temperature. The procedure:
as §4

The next data set deals with protease (subtilisin). Briefly: Enzymatic stability: residual activity of protease after 4 weeks storage. The format is physicochemical. The method, then:
Enzymatic stability is the ability to maintain enzymatic activity after storage. This may be determined by measuring the enzymatic activity before and after storage (for example, 4 weeks storage at 25° C.) to determine how much activity is lost. For practical purposes, the residual activity may be determined by comparing the activity of a stored sample and a frozen reference sample, which are analyzed at the same time to eliminate analytical day-to-day variation.
An aqueous protease (subtilisin) solution was produced via fermentation of microorganism, recovered by removal of cells and concentrated using ultrafiltration. Water and 1,2-hexanediol were added to the protease solution to obtain a diluted protease solution with the indicated concentration of 1,2-hexanediol while keeping the dilution of the protease solution constant (70 w/w % protease solution to 30% w/w water/1,2-hexanediol). The diluted protease solutions were incubated in closed vials at −18° C., 25° C. and 40° C. for 4 weeks. The protease activity was measured in the stored samples and residual activity calculated by using protease activity in samples stored at −18° C. as reference.

Data set [5] deals with Escherichia coli, Pseudomonas aeruginosa, Salmonella havana, Acinetobacter spp., Staphylococcus aureus, Staphylococcus xylosus, Enterococcus faecium. The data set can be described thus: Microbial stability challenge of protease formulation, bottle 1. The format is cell-based. As to conditions: inoculated to 10^5 CFU/mL. The procedure: (§5) An aqueous protease (subtilisin) solution was formulated with 40% w/w glycerol at pH 6.0 to a final enzyme protein concentration of 5.5% w/w. Two samples were prepared by adding 4% w/w 1,2-hexanediol or 0.3% w/w 1,2-octanediol to the protease solution.
(§6) This was done by challenging the formulations with the microorganisms in Table 7. Each of the three bottles in Table 8 were inoculated to a total of 10^5 CFU/mL of the test microorganisms.
(§7) The bottles were analyzed for CFU/mL after 2 and 4 weeks of incubation at 20-25° C. CFU (colony forming units) per mL was measured using standard microbiological methods.

Data set [6] concerns Lactobacillus buchneri, Lactobacillus para paracasei. The data set can be described thus: Microbial stability challenge of protease formulation, bottle 2. The format is cell-based. The note with it: inoculated to 10^5 CFU/mL. The method, then: as §5, §6, §7
In data set [7] the test system is Aspergillus niger, Candida parapsilosis, Candida famata. The data set can be described thus: Microbial stability challenge of protease formulation, bottle 3. The format is cell-based. As to conditions: inoculated to 10^5 CFU/mL. The procedure:
as §5, §6, §7

The subject of the next data set is aqueous amylase solution. The data set can be described thus: Physical stability of an amylase solution with 1,2-octanediol (visual inspection and NTU). The format is physicochemical. The note with it: 0.3% w/w 1,2-octanediol, amylase 4.3% w/w, 40% w/w glycerol, pH 4.8. The procedure:
as §2
An aqueous amylase solution was formulated with 40% w/w glycerol at pH 4.8 to a final enzyme protein concentration of 4.3% w/w. A sample was prepared by adding 0.3% w/w 1,2-octanediol to the amylase solution, and the physical stability was evaluated by visual inspection and NTU measurement, as shown in Table 2.

[8] abbreviates: 4% w/w 1,2-hexanediol, 2 weeks at 20-25° C.
[9] abbreviates: 4% w/w 1,2-hexanediol, 4 weeks at 20-25° C.
The mark [10] stands for this setting: 0.3% w/w 1,2-octanediol, 2 weeks at 20-25° C.
Where [11] appears, read: 0.3% w/w 1,2-octanediol, 4 weeks at 20-25° C.

Turning to `CCCCC(O)CO` (stereo not drawn) [1,2-hexanediol], the Turbidity in data set [1] (5% w/w 1,2-hexanediol added to liquid amylase product) amounted to 17.2 NTU; in [1] (10% w/w 1,2-hexanediol added to liquid amylase product), 14.6 NTU; in data set [2] (5% w/w 1,2-hexanediol added to liquid protease product), 21.2 NTU; in data set [2] (10% w/w 1,2-hexanediol added to liquid protease product), 11.7 NTU; in [3] it was 9.4 NTU; in data set [4], 31.2 NTU. Also, the “Physical stability by visual inspection” value is on record as “clear” in the data set with aqueous lipase solution (1% w/w 1,2-hexanediol, 4 weeks at 5° C.); “haze” in the data set on aqueous lipase solution (1% w/w 1,2-hexanediol, 4 weeks at 25° C.); “precipitate” in the data set with aqueous lipase solution (1% w/w 1,2-hexanediol, 4 weeks at 40° C.). Also, the Visual score entry is reported as “clear” in [3] and “haze” in [4]. In addition, the “Increase in enzyme solubility (enzyme activity) compared to the reference sample” value came to 7% in the data set with Mannanase (additive 2% w/w); 48% with Mannanase (additive 5% w/w); 11% in the data set on Protease (additive 2% w/w); 47% in the data set on Protease (additive 5% w/w); 32% with Pectate lyase (additive 2% w/w); 66% in the data set with Pectate lyase (additive 5% w/w). The “Residual activity of protease after 4 weeks storage” value is listed as 48% with protease (subtilisin) (2% w/w 1,2-hexanediol, 25° C.); 8% with protease (subtilisin) (2% w/w 1,2-hexanediol, 40° C.); 100% in the data set with protease (subtilisin) (2% w/w 1,2-hexanediol, −18° C. (reference temperature for the calculation)); 77% with protease (subtilisin) (5% w/w 1,2-hexanediol, 25° C. (room temperature)); 14% with protease (subtilisin) (5% w/w 1,2-hexanediol, 40° C.); 100% in the data set with protease (subtilisin) (5% w/w 1,2-hexanediol, −18° C. (reference temperature for the calculation)). Also, the “Microbial stability, measured as CFU/mL” value in data set [5] (setting [8]), in data set [5] (setting [9]), in data set [6] (setting [8]), in [6] (setting [9]), in data set [7] (setting [8]) and in data set [7] (setting [9]) was <1.0 × 10^2 CFU/mL each time.

Turning to `CCCCCCC(O)CO` (stereo not drawn) [1,2-octanediol], the Turbidity was 19.1 NTU in the data set with aqueous amylase solution (4 weeks at 5° C.), 11.9 NTU with aqueous amylase solution (4 weeks at 25° C.) and 12.7 NTU in the data set with aqueous amylase solution (4 weeks at 40° C.). Besides, the Visual score entry in the data set with aqueous amylase solution (4 weeks at 5° C.), with aqueous amylase solution (4 weeks at 25° C.) and in the data set on aqueous amylase solution (4 weeks at 40° C.) was “haze” in each case. Further, the “Physical stability by visual inspection” value with aqueous lipase solution (0.3% w/w 1,2-octanediol, 4 weeks at 5° C.) was “clear”; with aqueous lipase solution (0.3% w/w 1,2-octanediol, 4 weeks at 25° C.), “clear”; in the data set on aqueous lipase solution (0.3% w/w 1,2-octanediol, 4 weeks at 40° C.), “haze”. For the same compound, the “Microbial stability, measured as CFU/mL” value in data set [5] (setting [10]) is reported as 3.0 × 10^2 CFU/mL; in data set [5] (setting [11]) it was <1.0 × 10^2 CFU/mL; in data set [6] (setting [10]) it was <1.0 × 10^2 CFU/mL; in data set [6] (setting [11]), <1.0 × 10^2 CFU/mL; in data set [7] (setting [10]), 7.0 × 10^2 CFU/mL; in data set [7] (setting [11]) it was <1.0 × 10^2 CFU/mL.

As for `OCC(O)CO` [Glycerol, glycerol, reference compound], the Turbidity in data set [3] was found to be 71.2 NTU; in data set [4] it was 540 NTU. Moreover, the Visual score entry in data set [3] and in data set [4] was “precipitate” each time. Moreover, the “Increase in enzyme solubility (enzyme activity) compared to the reference sample” value in the data set with Mannanase (additive 2% w/w) is listed as 10%; in the data set with Mannanase (additive 5% w/w), 41%; in the data set on Protease (additive 2% w/w) it was 0%; with Protease (additive 5% w/w) it was 3%; with Pectate lyase (additive 2% w/w) it was 10%; with Pectate lyase (additive 5% w/w), 32%.

Source of the values: patent US20220411726A1, “STABILIZED LIQUID BORON-FREE ENZYME COMPOSITIONS” (Novozymes A/S, priority 2019, published 2022).
